# Data published in patent publication EP4574147A1, “COMPOSITION FOR PREVENTING, AMELIORATING, OR TREATING CANCER COMPRISING STEPPOGENIN AS ACTIVE INGREDIENT” (Kyungpook National University Industry-Academic Cooperation …, priority 2022, dated 2024).
# What was measured:
# EA.hy926 cells = assay: Wound-healing migration assay; type: cell-based, human
# Protocol: EA.hy926 cells were seeded at a density of 4 × 10^4 cells/well in 12-well plates and incubated for 24 hours. The cells were starved overnight in a serum-free medium and treated with mitomycin C (0.5 µg/mL) for 1 h. When confluent, a wound was made with a pipette tip and the cells were washed with a serum-free medium to remove cell debris. Next, the plates were treated with a conditioned medium collected from HEK293T cell cultures under hypoxia conditions treated with steppogenin. Wound closure was monitored and photographs were taken at 0 h and 8 h. Cell migration was measured by calculating the wound area between 0 h and 8 h.
# [1] = system: HIF-1α target genes VEGF, GLUT1, CXCR4, and CA9; assay: Real-time qRT-PCR of HIF-1α target gene mRNA; type: cell-based; conditions: hypoxia (FIG. 4c)
# Protocol: Total RNA was isolated using TRIzol Reagent (Invitrogen). The isolated RNA was used to synthesize cDNA using ReverTra Ace qPCR RT Master Mix (TOYOBO, Osaka, Japan) according to the manufacturer's protocol. The synthesized cDNA was mixed with gene-specific primers. Amplification real-time polymerase chain reaction (PCR) was performed using SYBR Green PCR Master Mix (Applied Biosystems, CA, USA). The heat cycle proceeded as follows: 50 °C for 2 min, 95 °C for 10 min, 40 cycles of denaturation at 95 °C for 15 s, and annealing at 60 °C for 1 min. Mean cycle threshold values were used to calculate mRNA expression with normalization to β-actin as an internal control.
# DLL4 = assay: Immunofluorescence staining of DLL4 in endothelial cells; type: cell-based, human; conditions: hypoxia, immunofluorescence (FIG. 5b)
# Protocol: (§1) Cells were seeded at a density of 2 × 10^4 - 3 × 10^4 cells/well on coverslips of 4-well plates and cultured for 24 h. For HIF-1α staining, A549 cells were treated with various compounds and incubated under normoxia or hypoxia conditions for 4 h. For Ki-67 and DLL4 staining, EA.hy926 cells were treated with the same compounds and maintained under VEGF (20 ng/mL) treatment. Next, the cells were fixed with 4% paraformaldehyde and permeabilized with 1% Triton X-100. The fixed cells were blocked with phosphate-buffered saline (PBS) containing 3% bovine serum albumin (BSA) and then incubated with primary antibodies overnight. After incubation, the cells were incubated with secondary antibodies for 1 hour and their nuclei were stained using DAPI. The stained cells were visualized using a confocal microscope (Leica TCS SP5 II Dichroic/CS, Leica, Germany).
# EA.hy 926 cell = assay: Spheroid sprouting assay; type: cell-based, human; conditions: VEGF treatment, 2 days (FIG. 5d)
# Protocol: EA.hy 926 cell suspension (5×10^3 cells) was distributed on the lid of a 100 mm dish using a hanging-drop method and maintained for 24 hours. The next day, spheroids were harvested and mixed with Methocel stock solution containing 20% FBS. Next, spheroids containing Methocel solution were seeded in 24-well plates. After incubation at 37°C for 30 minutes, VEGF or steppogenin was added to the polymerized Methocel solution and incubated for 2 days.
# HEK293T cells = assay: Cell counting kit-8 assay (cell viability under hypoxic conditions); type: cell-based, human; conditions: hypoxia, compared to vehicle treatment (FIG. 3a)
# Protocol: HEK293T cells were seeded at a density of 5 × 10^3 cells/well in 96-well plates and cultured at 37°C for 24 h. After 24 hours, the natural compounds were diluted in the medium according to the concentration and replaced. Cell viability was determined after exposure to hypoxic conditions for 24 h using the Cell Counting Kit-8 (DOJINDO, Rockville, MD, USA) according to the manufacturer's instructions, and measured using a microplate reader (Infinite M200 Pro; TECAN, Mannedorf, Switzerland) at 450 nm.
# To test the inhibitory activity of 70 natural compounds on HIF-1 and DLL4 activity, their cytotoxic effects on immortalized normal cells were first tested under hypoxia conditions. In particular, under these conditions, HEK293T cells were treated with compounds at various concentrations (0.1 to 10 µM).
# HIF-1α [2] = assay: Immunofluorescence staining of intranuclear HIF-1α; type: cell-based, human; conditions: A549 cells, hypoxia 4 h, immunofluorescence (FIG. 4b)
# Protocol: Cells were seeded at a density of 2 × 10^4 - 3 × 10^4 cells/well on coverslips of 4-well plates and cultured for 24 h. For HIF-1α staining, A549 cells were treated with various compounds and incubated under normoxia or hypoxia conditions for 4 h. […] Next, the cells were fixed with 4% paraformaldehyde and permeabilized with 1% Triton X-100. The fixed cells were blocked with phosphate-buffered saline (PBS) containing 3% bovine serum albumin (BSA) and then incubated with primary antibodies overnight. After incubation, the cells were incubated with secondary antibodies for 1 hour and their nuclei were stained using DAPI. The stained cells were visualized using a confocal microscope (Leica TCS SP5 II Dichroic/CS, Leica, Germany).
# Ki-67 = assay: Immunofluorescence staining of Ki-67 in endothelial cells; type: cell-based, human; conditions: hypoxia
# Protocol: as §1
# Notch1, and NICD = assay: Western blot analysis of VEGF-induced Notch1 and NICD protein levels; type: cell-based, human; conditions: HUVECs (FIG. 5a)
# Protocol: Proteins were extracted from cultured cells using RIPA lysis buffer (Thermo Scientific, Waltham, MA, USA). The protein extracts were separated using SDS-PAGE and transferred to nitrocellulose membranes (Whatman, Maidstone, England). The membranes were blocked with 5% skim milk in Tris-buffered saline containing 0.1% Tween-20 for 1 hour at room temperature. After blocking, the membranes were incubated with specific primary antibodies overnight at 4°C, and then incubated with secondary antibodies for 1 hour at room temperature. Proteins were detected using the Enhanced Chemiluminescence Kit (Bio-Rad, Hercules, CA, USA) according to the manufacturer's instructions. Primary antibodies against HIF-1α (BD Biosciences, San Diego, CA, USA), VEGF (Santa Cruz Biotechnology, Santa Cruz, CA, USA), CXCR4 (Abcam, Cambridge, UK), CA9 (Abcam), DLL4 (Santa Cruz Biotechnology), NOTCH1 (Thermo Scientific), and β-actin (Santa Cruz Biotechnology) were used.
# HIF-1α [3] = assay: HRE-luciferase dual-luciferase assay (HIF-1α promoter reporter activity); type: cell-based, human
# Protocol: To perform the HRE-luciferase assay, HEK293T cells were seeded in a 96-well plate at a density of 5×10^3 cells/well and cultured at 37°C. Next, cells were co-transfected with pGL3-HRE-luciferase plasmid and pRL-SV40 Renilla plasmid containing 5 copies of HRE of human VEGF gene using a vivamagic transfection reagent (Vivagen, Seongnam, Korea) (Kwon et al., 2015). After 24 h, cells were pretreated with various concentrations of natural compounds for 1 h and then incubated under hypoxia conditions for 24 h. To perform the DLL4-luciferase assay, EA.hy926 cells were seeded in 24-well plates at a density of 4 × 10^4 cells/well and cultured at 37 °C for 24 h. Cells were co-transfected with pGL3-DLL4 luciferase and pRL-SV40 Renilla plasmids using Lipofectamine 2000 (Invitrogen) and cultured at 37°C for 24 h. Next, the cells were incubated with various concentrations of natural compounds for 1 h and then incubated for 24 h in the presence or absence of VEGF (10 ng/mL). The luminescence of HRE- and DLL4-promoter activities was detected using a microplate reader and the Dual-Luciferase Assay Kit (Promega, Madison, WI, USA) according to the manufacturer's instructions. The luciferase activity of the natural compounds was normalized to Renilla luciferase activity.
# To select potential HIF-1α inhibitors, the effects of 70 natural compounds were tested on HIF-1α promoter reporter activity using a dual-luciferase assay.
structure (smiles),measurement,setting,value
"O=C1C[C@@H](c2ccc(O)cc2O)Oc2cc(O)cc(O)c21 [steppogenin, (2S)-2-(2,4-dihydroxyphenyl)-5,7-dihydroxy-2,3-dihydrochromen-4-one]",wound closure,"EA.hy926 cells; HUVECs, hypoxia, 0 h to 8 h (FIG. 5c)",significantly reduced
same,number of migrating cells,EA.hy926 cells; hypoxia (FIG. 5c),significantly reduced
same,mRNA expression of CA9,[1],inhibited
same,mRNA expression of CXCR4,[1],inhibited
same,mRNA expression of GLUT1,[1],inhibited
same,mRNA expression of VEGF,[1],inhibited
same,DLL4 expression in ECs,DLL4,dramatically suppressed
same,germination ability (number of germinations) in 3D EC spheroid cultures,EA.hy 926 cell,significantly inhibited
same,dose-dependent cell viability,HEK293T cells,not altered
same,intranuclear expression of HIF-1α,HIF-1α [2],decreased
same,"level of Ki-67, a cell proliferation marker",Ki-67,decreased
same,VEGF-induced NICD protein levels,"Notch1, and NICD",dose-dependently reduced
same,VEGF-induced Notch1 protein levels,"Notch1, and NICD",dose-dependently reduced
same,HRE-luciferase reporter activity,"HIF-1α [3]; 0.1 to 10 µM, dose-dependent, hypoxia (FIG. 3c)",significantly inhibited
same,HRE-luciferase activity compared to the hypoxic vehicle (DMSO) control group,"HIF-1α [3]; HEK293T cells, hypoxia 24 h, screening (FIG. 2a)",< 70%
same,IC50,"HIF-1α [3]; Homo sapiens, 72 h, HRE-luciferase reporter, hypoxia (FIG. 3d), read-out: half-maximal inhibitory concentration (IC50) for HIF-1α activity",560 ± 43 nM
